For data set [1] the following is noted: cited from earlier work.
The test system of the next data set is small GTPase Ras. Put plainly: Quantification of Ras activation (GST-Raf-1 Ras binding domain). It is filed as cell-based, rat. The settings on record: exogenous LacCer with D-PDMP. The protocol:
Quantification of Ras Activation. After stimulation, primary astrocytes in 6 well plates were washed with PBS and lysed in membrane lysis buffer (MLB; 0.5 ml of 25 mM HEPES, pH7.5, 150 mM NaCl, 1% Igepal CA-630, 0.25% sodium deoxycholate, 10% glycerol, 10 mM MgCl2, 1 mM EDTA, 25 mM NaF, 1 mM of sodium orthovanadate, and EDTA free Complete™ protease inhibitor cocktail). After centrifugation (5,000×g) at 4° C. for 5 min, supernatant was used for Ras activation assay. One hundred μg of supernatant was used for binding with agarose conjugated Ras-binding domain (RBD) of Raf-1 which was expressed in BL21 (Invitrogen) Escherichia coli strain transformed by pGEX-2T-GST-RBD in the presence of 0.1 mM of IPTG as described previously (Herrmann et al., 1995). The binding reaction was performed at 4° C. for 30 min in MLB. Following washing with MLB three times, Ras-RBD complex were denatured by adding of 2×SDS sample buffer. Ras protein was identified by western immunoblot analysis with Ras antibodies from Upstate Biotechnology.

Another data set deals with NF-κB. Put plainly: NF-κB reporter, gel shift and IκB phosphorylation after LPS/IFN. Type of data set: cell-based, rat. The protocol:
(§1) Western Blot Analysis. For iNOS protein, the cells were washed with cold Tris buffered saline (TBS; 20 mM Trizma base, and 137 mM NaCl, pH 7.5), lysed in 1×SDS sample loading buffer (62.5 mM Trizma base, 2% w/v SDS, 10% glycerol), following sonication and centrifugation at 1,5000×g for 5 min, the supernatant was used for the iNOS western immunoblot assay. The protein concentration of samples was determined with the detergent compatible protein assay reagent (Bio-Rad Laboratories, CA) using bovine serum albumin (BSA) as the standard. Sample was boiled for 3 min with 0.1 volumes of 10% O-mercaptoethanol and 0.5% bromophenol blue mix. Fifty μg of total cellular protein was resolved by electrophoresis in 8 or 12% polyacrylamide gels, electro-transferred to polyvinylidene difluoride (PVDF) filter and blocked with Tween 20 containing Tris-buffered saline [TBST; 10 mM Trizma base (pH 7.4), 1% Tween 20, and 150 mM NaCl] with 5% skim milk. After incubation with antiserum against iNOS (BD PharMingen, CA), or hRas (Upstate Biotechnology, CA), or phospho-specific MAPK (p42/44) (Signal Transduction), in PVDF buffer for 2 h at room temperature, the filters were washed 3 times with TBST buffer and then incubated with horseradish peroxidase conjugated anti-rabbit or mouse IgG for 1 h. The membranes were autoradiographed by using ECL-plus (Amersham Pharmacia Biotech) after washing with TBST buffer.
Nuclear Extraction and Electrophoretic mobility shift assay. Nuclear extracts from cells (1×10^7 cells) were prepared using previously published method (Dignam et al., 1983) with slight modification. Cells were harvested, washed twice with ice-cold TBS, and lysed in 400 μl of buffer A containing, 10 mM KCl, 2 mM MgCl2, 0.5 mM dithiothreitol, protease inhibitor cocktail (Sigma), and 0.1% Nonidet P40 in 10 mM HEPES, pH 7.9 for 10 min on ice. Following centrifugation at 5,000×g for 10 min, the pelleted nuclei were washed with buffer A without Nonidet P40, and re-suspended in 40 μl of buffer B containing 25% (v/v) glycerol, 0.42 M NaCl, 1.5 mM MgCl2, 0.2 mM EDTA, 0.5 mM dithiothreitol, and Complete™ protease inhibitor cocktail (Roche) in 20 mM HEPES, pH7.9 for 30 min on ice. The lysates were centrifuged at 15,000×g for 15 min and the supernatants containing the nuclear proteins were stored at −70° C. until use. Ten μg of nuclear proteins was used for the electrophoretic mobility shift assay for detection of AP-1, NFκB, and C/EBP DNA binding activities. DNA-protein binding reactions were carried out at room temperature for 20 min in 10 mM Trizma base (pH 7.9), 50 mM NaCl, 5 mM MgCl2, 1 mM EDTA, 1 mM dithiothreitol, 1 μg poly (dl-dC), 5% (v/v) glycerol, and approximately 0.3 pmol of NFκB (Santa Cruz Biotech) labeled with DIG-ddUTP using terminal deoxynucleotidyl transferase (Roche). Protein-DNA complexes were resolved from protein-free DNA in 5% polyacrylamide gels at room temperature in 50 mM Tris, pH 8.3, 0.38 M glycine, and 2 mM EDTA, and electroblotted onto positively charged nylon membranes. The chemiluminescence detection method for DIG-labeled probes is identical to the method described for the non-isotopic northern blot analysis in the preceding.
Transient Transfections and Reporter Gene Assay. 3×10^5 cells/well were cultured in 6-well plates for one day before the transfection. Transfection was performed with plasmid concentration constant (2.5 μg/transfection) and 8 μl of Fugene transfection reagent (Roche Molecular Biochemicals). One day after transfection, the cells were placed in serum free media for overnight. Following appropriate treatment, the cells were washed with phosphate buffered saline (PBS), scrapped, and then resuspended with 100 μl of lysis buffer (40 mM of Tricine pH 7.8, 50 mM of NaCl, 2 mM of EDTA, 1 mM of MgSO4, 5 mM of dithiothreitol, and 1% of Triton X-100). After incubation in room temperature for 15 min with occasional vortexing, the samples were centrifuged. […]

The next data set deals with ERK1/2. Nature of the data set: ERK1/2 phosphorylation by immunoblot after LPS/IFN. Type of data set: cell-based, rat. The conditions noted are these: exogenous LacCer with D-PDMP. The protocol:
as §1

Data set [2] deals with iNOS. Put plainly: LPS/IFN-induced NO production and iNOS gene expression in primary astrocytes. Type of data set: cell-based, rat.
Data set [3] has as its system iNOS. Put plainly: LPS/IFN-induced NO production and iNOS expression in C6 glioma cells. Type of data set: cell-based, rat. The settings on record: exogenous glycosphingolipid with D-PDMP. The procedure:
C6 rat glioma cells obtained from ATCC were maintained in Dulbecco's modified Eagle's medium (DMEM) (GIBCO, CA) containing 10% fetal bovine serum (FBS) (GIBCO) and 10 ? g/ml gentamicin. All the cultured cells were maintained at 37° C. in 5% CO2/95% air. At 80% confluency, the cells were incubated with serum free DMEM medium for 24 h prior to the incubation with LPS/IFN ? and other chemicals. Assay for NO production. Cells were cultured in 12-well plastic tissue culture plates. After the appropriate treatment, production of NO was determined by an assay of the culture supernatant for nitrite (Green et al., 1982). Briefly, 100 μl of culture supernatant was allowed to react with 100 μl of Griess reagent. The optical density of the assay samples was measured spectrophotometrically at 570 nm. Nitrite concentrations were calculated from a standard curve derived from the reaction of NaNO2 in fresh media. Western Blot Analysis. […] The protein concentration of samples was determined with the detergent compatible protein assay reagent (Bio-Rad Laboratories, CA) using bovine serum albumin (BSA) as the standard. Sample was boiled for 3 min with 0.1 volumes of 10% O-mercaptoethanol and 0.5% bromophenol blue mix. Fifty μg of total cellular protein was resolved by electrophoresis in 8 or 12% polyacrylamide gels, electro-transferred to polyvinylidene difluoride (PVDF) filter and blocked with Tween 20 containing Tris-buffered saline [TBST; 10 mM Trizma base (pH 7.4), 1% Tween 20, and 150 mM NaCl] with 5% skim milk. After incubation with antiserum against iNOS (BD PharMingen, CA), or hRas (Upstate Biotechnology, CA), or phospho-specific MAPK (p42/44) (Signal Transduction), in PVDF buffer for 2 h at room temperature, the filters were washed 3 times with TBST buffer and then incubated with horseradish peroxidase conjugated anti-rabbit or mouse IgG for 1 h. The membranes were autoradiographed by using ECL-plus (Amersham Pharmacia Biotech) after washing with TBST buffer. RT-PCR amplification. […] PCR amplification was conducted in 25 ? l of reaction mixture with 1.0 ? l of cDNA, […] and under the manufacturer's Taq polymerase conditions (Takara, […] Shuzo Co. Ltd, Japan). The sequence of primers used for PCR amplification are as follows; iNOS, (Forward-[NT], Reverse-[NT]), GalT-2 (Forward-[NT], Reverse-[NT]), GAPDH (Forward-[NT], Reverse-[NT]).

For data set [4], the system named is iNOS. Put plainly: LPS-induced iNOS expression and iNOS promoter activity in primary astrocytes (AICAR). It is filed as cell-based, rat. The conditions noted are these: GGPP 10 μM, FPP 10 μM, mevalonate 10 mM with AICAR 1 mM. The protocol: Immunoblot Analysis: Cells were harvested in ice-cold lysis buffer (50 mM Tris-HCl, pH 7.4, containing 50 mM NaCl, 1 mM EDTA, 0.5 mM EGTA, 10% glycerol and protease inhibitor cocktail) and protein was estimated using Bradford reagent (Bio-Rad, USA). Fifty microgram of total protein/lane was separated by SDS-PAGE and blotted to nitrocellulose (Amersham Pharmacia Biotech). Blots were blocked for 1 h in 5% nonfat dry milk-TBS-0.1% Tween 20 and incubated overnight with primary antibody (1:1000) in 5% BSA-TBS-0.1% Tween 20 at 4° C. This was followed by incubation of 1 h with appropriate secondary peroxidase conjugated antibody (1:10,000, Sigma). Immunoreactivity was detected using the enhanced chemiluminescence detection method according to the manufacturer's instructions (Amersham Pharmacia Biotech) and subsequent exposure of the membrane to X-ray film. Antisense experiments: To decrease the levels of endogenous AMPK, astrocytes were pretreated for 48 h with 25 μm (of phosphothiorated antisense (AS) oligonucleotide ([NT]) directly against both the ? α1 and α2 ? subunits of AMPK (Culmsee et al., 2001) ? ? ? missense (MS) oligonucleotide ([NT]) was used in control cultures. Oligonucleotides were transfected with OligofectamineTM reagent as per manufacturer's instructions. Northern blot, gene array analysis and RT-PCR for cytokines expression: Total RNA was extracted with Trizol (Gibco) according to the manufacturer's protocol. Northern blot for iNOS was performed with 15 μg of RNA per reaction as described previously (Pahan et al., 1997). β-actin was used as control for RNA loading. Gene expression array for inflammatory cytokines (TNFα, IL-1β, IL-6 and IFN-γ) was used according to the manufacturer's protocol (Superarray). Signal quantitation was determined using imaging densitomter (Bio-Rad Lab, Hercules, Calif.). For RT-PCR, RNA was isolated from treated rat brain cerebral cortex by extracting in Trizol as above. cDNA was prepared from 5 μg of total RNA using poly dT as a primer and Moloney murine leukemia virus reverse transcriptase (Promega) as per manufacturer's instructions. 2 μl of cDNA was used to amplify the following products [given as product name, expected size, and forward (F) and reverse (R) primers used]: iNOS, 730 bp. ([NT]-1β, 623 bp. ([…]-α, 473 bp. ([…], 528 bp. […] Transcriptional assays: Primary astrocytes or microglial cell line (BV2) were transiently transfected with NF- ? B-or iNOS-luciferase reporter gene with ? -galactosidase in the presence or absence of dominant negative AMPKα2 or HA-IKK ? by lipofectamine-2000 (astrocytes) and lipofectamine-Plus (BV2, Invitrogen) according to the manufacturer instructions. pcDNA3 was used to normalize all groups to equal amounts of DNA. Luciferase activity was determined using a luciferase kit (Promega).

For the molecule `CCCCN1CC(O)C(O)C(O)C1CO` [Miglustat, 1,5-(butylimino)-1,5-dideoxy-D-glucitol], in data set [1], the solubility in water result is “soluble”.

As to lactosylceramide [LacCer], the “effect on D-PDMP reduction of Ras activation” value in the data set with small GTPase Ras is on record as “fully reversed”. In addition, the “levels of phosphorylated IκB” value with NF-κB (LacCer added to D-PDMP) was “increased”. Besides, in the data set on NF-κB (exogenous LacCer with D-PDMP), the “effect on D-PDMP inhibition of NF-κB DNA binding activity” value is listed as “reversed” and the “effect on D-PDMP inhibition of κB-repeat luciferase activity” value is reported as “effectively bypassed”. The “effect on D-PDMP inhibition of ERK 1/2 phosphorylation” value with ERK1/2 is “reversed”. The “effect on D-PDMP mediated inhibition of iNOS gene expression” value in the data set with iNOS [2] (LacCer 5 and 10 μM with D-PDMP 50 μM before LPS/IFN) is given as “blunted”. In the data set on iNOS [2] (exogenous LacCer with PD98059), the “effect on PD98059 inhibition of iNOS gene expression” value is reported as “no effect”. For the same molecule, in the data set on iNOS [2] (glycosphingolipid 5 and 10 μM added with D-PDMP 50 μM, 0.5 hr before LPS/IFN, 24 hrs), the “effect on D-PDMP mediated inhibition of NO production” value was “blunted”. Besides, in the data set with iNOS [3], the “effect on D-PDMP inhibition of NO production” value is on record as “reversed”; the “effect on D-PDMP inhibition of iNOS mRNA and protein expression” value is “reversed”.

Turning to `CC(C)=CCC/C(C)=C/CC/C(C)=C/CC/C(C)=C/COP(=O)(O)OP(=O)(O)O` [GGPP, geranylgeranyl pyrophosphate], the “effect on inhibitory effect of AICAR on LPS induced iNOS-luciferase activity” value (from here on “effect on inhibitory effect of AICAR”) in the data set on iNOS [4] is given as “did not reverse”.

In the case of `CC(O)(CCO)CC(=O)O` (centres unmarked) [mevalonate], the “effect on inhibitory effect of AICAR” value with iNOS [4] is given as “did not reverse”.

In the case of `CC(C)=CCC/C(C)=C/CC/C(C)=C/COP(=O)(O)OP(=O)(O)O` [FPP, farnesyl pyrophosphate], the “effect on inhibitory effect of AICAR” value in the data set with iNOS [4] is recorded as “did not reverse”.

The values above are taken from patent publication US20070270350A1, “Methods and Compositions for the Prevention and Treatment of Inflammatory Diseases or Conditions” (MUSC FOUNDATION FOR RESEARCH DEVELOPMENT, priority 2003, published 2007).
